This is an account of results in paper PMC5876397, “An advanced human in vitro co-culture model for translocation studies across the placental barrier” (Scientific Reports, 2018).

Read-outs that look alike come from different tables or passages of the source.

In data set [1] the test system is BeWo b30 / HPEC-A2 co-culture. In words: Sodium fluorescein (Na-F) exclusion assay, co-culture. The settings on record: day 3 of cultivation, 5 µM Na-F, 3 h incubation. The data set is classed as in vitro ADME, human. On the procedure: (§1) To determine barrier formation, exclusion of Na-F was determined daily for 4 d. 0.5 ml of 5 µM Na-F (Sigma-Aldrich, Buchs, Switzerland) was added to the apical chamber and 1.5 ml EM (without phenol red) to the basal chamber.

The subject of data set [2] is BeWo b30 monolayer. The data set can be described thus: Sodium fluorescein (Na-F) exclusion assay, BeWo monoculture. It counts as in vitro ADME, human. The settings on record: day 3 of cultivation, 5 µM Na-F, 3 h incubation. The protocol: as §1
Data set [3] relates to HPEC-A2 monolayer. In words: Sodium fluorescein (Na-F) exclusion assay, HPEC monoculture. The data set is classed as in vitro ADME, human. The settings on record: after 3 d of cultivation, 5 µM Na-F, 3 h incubation. The protocol: as §1
The test system of data set [4] is BeWo b30 monolayer.
Experimental: (§2) Polycarbonate Transwell® inserts (pore size 3.0 µm, growth area 1.12 cm^2, apical volume 0.5 ml, basolateral volume 1.5 ml; Corning®, Sigma-Aldrich, Buchs, Switzerland) were pre-coated with 50 µg/ml human placental collagen IV (Sigma-Aldrich, Buchs, Switzerland) for 1 h at 37 °C/5% CO2 (200 µl on both sides). Then the membrane was washed twice with phosphate buffered saline (PBS, pH 7.4, Sigma-Aldrich, Steinheim, Germany). Translocation experiments were done either with BeWo or HPEC monocultures or with both cell lines co-cultivated on a membrane. For the BeWo monolayer 1.5 × 10^5 cells in 500 µl EM were added apically and 1.5 ml EM basolaterally. For the HPEC monolayer the cells were seeded on the basolateral side of the membrane (Fig. 5a–d). Therefore, the reversed insert was placed in a 6-well plate (TPP, Faust AG, Schaffhausen, Switzerland), which had been filled with 1 ml sterile PBS to ensure a humid surrounding. Small rubber spaces (1.5 mm thick) were placed in each corner of the plate in order to slightly lift the lid to prevent direct contact of the lid with the membrane. This enables the adhesion of the drop to the lid, thereby avoiding medium loss as well as cell aggregation in the center. 1 × 10^5 HPECs in 200 µl EM were added to the membrane and the lid was immediately placed on the plate. After 2 h of incubation (37 °C, 5% CO2), the insert was placed into a 12-well plate with fresh EM (0.5 ml apical and 1.5 ml basolateral). For the co-culture, the steps described above for the monocultures were done, starting with the HPEC layer. The inserts were cultivated for 3 d at 37 °C/5% CO2 in EM (medium change after 48 h) under static conditions.
(§3) Translocation studies were performed with co-cultured membranes as well as separate monolayers (BeWo on the apical or HPEC on the basolateral side of the insert) cultivated for 3 d as described above. […] At each time point (0, 0.25, 2, 4, 6, 8, 24 h) samples (50 µl) were taken from the basolateral chamber and renewed with fresh medium. […] Only differences were the use of EM with phenol red and sample volumes of 200 µl (basolateral) at each time point (0, 0.25, 1, 2, 6 h). Analysis of these samples was done by high performance liquid chromatography (HPLC). These studies were conducted in static and shaken (horizontal shaking at 50 rpm) conditions to determine the potential influence of simple shaking on transfer rates.
(§4) The mass transported (ΔQn) was calculated for each time point and corrected for the mass taken before:1 ΔQn=Cn∗Vw+∑j=1n−1Vs∗Cj with the concentration measured at time tn (Cn), the volume of the well (Vw, 1.5 ml) and the sample volume (Vs). The sum of the amount removed during previous sampling is added respectively (Σ). Results were then expressed as basolateral amount of the initial dose (ID) in %. […] The permeability factor was calculated with the following two equations:2 P=ΔQ/Δt/A∗C0 3 Pe=1/(1/Pc−1/Pm) where the permeability factor (P; cm s^−1) is first calculated as the quotient of the amount transported (ΔQ; mg) at a specific time point (Δt; sec) divided by the product of the membrane surface area (cm^2) and the initial concentration of the substance (C0; mg cm^−3). Pe describes the apparent permeability factor corrected for the influence of the membrane. Therefore, the permeability value across the membrane Pm was subtracted from the permeability across the cells (Pc; monolayer or co-culture).
Data set [5] has as its system HPEC-A2 monolayer.
Experimental: as §2, §3, §4
Data set [6] relates to BeWo b30 / HPEC-A2 co-culture.
Experimental: as §2, §3, §4
A further data set relates to BeWo cells. The settings on record: cited from earlier work.
The conditions of data set [7]: not told, 2 h.
Experimental: as §2
(§5) Translocation studies were performed with co-cultured membranes as well as separate monolayers (BeWo on the apical or HPEC on the basolateral side of the insert) cultivated for 3 d as described above. […] At each time point (0, 0.25, 2, 4, 6, 8, 24 h) samples (50 µl) were taken from the basolateral chamber and renewed with fresh medium. […]
(§6) The mass transported (ΔQn) was calculated for each time point and corrected for the mass taken before:1 ΔQn=Cn∗Vw+∑j=1n−1Vs∗Cj with the concentration measured at time tn (Cn), the volume of the well (Vw, 1.5 ml) and the sample volume (Vs). […] Results were then expressed as basolateral amount of the initial dose (ID) in %. […] The permeability factor was calculated with the following two equations:2 P=ΔQ/Δt/A∗C0 3 Pe=1/(1/Pc−1/Pm) where the permeability factor (P; cm s^−1) is first calculated as the quotient of the amount transported (ΔQ; mg) at a specific time point (Δt; sec) divided by the product of the membrane surface area (cm^2) and the initial concentration of the substance (C0; mg cm^−3). […]
The nature of data set [8]: in vitro. The settings on record: human.
Experimental: as §2, §3, §4
The nature of data set [9]: in vitro. The settings on record: not told, Permeability factor P2h.
Experimental: as §2, §5, §6
The test system of a further data set is BeWo monolayer. The settings on record: cited from earlier work.
A short description of data set [10]: Translocation across control (empty collagen-coated) insert membrane. The settings on record: not told, Permeability factor P2h.
Experimental: as §2, §5, §6
Data set [11] is described as follows: Translocation study across BeWo/HPEC co-culture (placental barrier model). The note with it: human.
Experimental: as §2, §3, §4
The subject of data set [12] is BeWo b30 / HPEC-A2 co-culture. The data set is described as above. The note with it: after 6 h, static, 100 µM.
Experimental: as §2, §3, §4
Data set [13] is described as follows: Translocation study across BeWo monolayer on collagen-coated 3 µm polycarbonate Transwell insert. The settings on record: human; for Papp at 2 h, 100 µM: BeWo monolayer.
Experimental: as §2, §3, §4
Data set [14] has as its system BeWo b30 monolayer. Described as above. The settings on record: BeWo layer, after 6 h, static, 100 µM.
Experimental: as §2, §3, §4
Data set [15] is described as follows: Translocation study across HPEC monolayer on collagen-coated 3 µm polycarbonate Transwell insert. The settings on record: human.
Experimental: as §2, §3, §4
Data set [16] has as its system HPEC-A2 monolayer. The data set is described as above. The note with it: after 6 h, static, 100 µM.
Experimental: as §2, §3, §4
Setting [17] is: Apparent permeability factor Pe, 2h, shaken (50 rpm), median ± mad.
Where [18] appears, read: Apparent permeability factor Pe, 2h, static, median ± mad.
Where [19] appears, read: Permeability factor P2h, shaken, without subtraction of Pmembrane.
[20] abbreviates: Permeability factor P2h, static, without subtraction of Pmembrane.

As for `O=C([O-])c1ccccc1-c1c2ccc(=O)cc-2oc2cc([O-])ccc12.[Na+].[Na+]` [Na-F, sodium fluorescein], the “Na-F translocation, basolateral amount of ID” value in data set [1] is 0.5 % of ID; in the data set on BeWo b30 monolayer [2], 0.5 % of ID; in the data set on HPEC-A2 monolayer [3], 14.0 % of ID. Besides, the “Permeability factor P2h” value is 2.5 ± 0.4 x 10-6 cm s-1 in the data set on BeWo b30 monolayer [4] and 1.0 ± 1.0 x 10-6 cm s-1 in data set [6]. Besides, the “Transport, basolateral amount of the initial dose (ID)” value (“Transport, basolateral amount” for short) in the data set on BeWo b30 monolayer [4] worked out at 34.5%; with HPEC-A2 monolayer [5] it was 77.0%; in data set [6] it was 35.1%. In addition, the “Apparent permeability factor Pe, 2h” value in data set [6] is listed as 1.1 ± 1.1 × 10^−6 cm s^−1. Besides, in the data set on BeWo cells (previous publications ref 47, 64), the “Viability of BeWo cells” value is given as “did not affect the viability”.
By Papp is commonly meant the rate of passage across a membrane or cell layer, normalised by area and donor concentration. Consider `Cc1cc(=O)n(-c2ccccc2)n1C` [antipyrine], for which the “Apparent permeability factor Pe, 2h” value in the data set on BeWo b30 monolayer [4] (human, 2 h, 100 µM) is 106.4 ± 8.2 × 10^−6 cm s^−1; in the data set on HPEC-A2 monolayer [5] (human, 2 h, 100 µM), 76.5 ± 7.0 × 10^−6 cm s^−1. Also, the “Permeability factor P2h” value with BeWo b30 monolayer [4] (human, 2 h, 100 µM) amounted to 26.5 ± 1.1; in the data set with HPEC-A2 monolayer [5] (human, 2 h, 100 µM), 24.1 ± 1.0; in [7], 35.3 ± 0.7. In addition, the “Transport, basolateral amount” value with BeWo b30 monolayer [4] (human, 6 h, 100 µM) amounted to 74.7%; in the data set on HPEC-A2 monolayer [5] (human, 6 h, 100 µM) it was 71.4%; in data set [6] (human, 6 h, 100 µM), 80.9%. Besides, the Papp at 1 h, 100 µM in the data set “in vitro [8]” (Permeability P1h) turned out to be 36.2 ×10⁻⁶ cm/s; in the data set “in vitro [8]” (Permeability Pe, 1h) it was 79.3 ×10⁻⁶ cm/s. The same molecule yielded a Papp at 2 h in the data set “in vitro [9]” of 50 ± 3.4 ×10⁻⁶ cm/s. Moreover, the “Permeability Pe,1h” value in the data set with BeWo monolayer is 58 ×10⁻⁶ cm/s. Also, the “Viability of BeWo cells” value with BeWo cells is on record as “did not affect the viability”.
On to `COc1ccc2c(c1)c(CC(=O)O)c(C)n2C(=O)c1ccc(Cl)cc1` [indomethacin], for which the “Permeability P1h” value with BeWo monolayer (BeWo monoculture transfer model, static conditions, Li et al. ref 47) was 23.2 ×10⁻⁶ cm/s. In addition, the apparent permeability (Papp) at 2 h was found to be 39.6 ± 6.5 ×10⁻⁶ cm/s in [10] (shaken) and 36.4 ± 1.1 ×10⁻⁶ cm/s in data set [10] (static, median ± mad). Besides, the apparent permeability coefficient (Papp) at 2 h, 100 µM came out at 30.7 ± 1.2 ×10⁻⁶ cm/s in data set [11] (setting [17]); 26.7 ± 0.2 ×10⁻⁶ cm/s in data set [11] (setting [18]); 17.3 ± 0.8 ×10⁻⁶ cm/s in data set [11] (setting [19]); 15.3 ± 1.1 ×10⁻⁶ cm/s in [11] (setting [20]); 37.2 ± 11.9 ×10⁻⁶ cm/s in [13] (setting [17]); 39.5 ± 8 ×10⁻⁶ cm/s in data set [13] (Apparent permeability factor Pe, 2h, static, apical to basolateral, median ± mad). The Papp at 2 h, 100 µM in data set [13] (setting [19]) was 21.7 ± 0.3 ×10⁻⁶ cm/s; in [13] (setting [20]) it was 19 ± 3.5 ×10⁻⁶ cm/s; in [15] (setting [17]), 22.7 ± 0.4 ×10⁻⁶ cm/s; in data set [15] (setting [18]), 19 ± 0.1 ×10⁻⁶ cm/s; in data set [15] (setting [19]), 14.6 ± 1.2 ×10⁻⁶ cm/s; in data set [15] (setting [20]) it was 12.6 ± 0.6 ×10⁻⁶ cm/s. The “Transport, basolateral amount” value is recorded as 41.5% in data set [12], 45.9% in the data set on BeWo b30 monolayer [14] and 42.9% with HPEC-A2 monolayer [16]. The same molecule gave a Papp at 1 h, 100 µM in data set [13] (Permeability P1h, this study, static, compared with BeWo monolayer literature values) of 19.9 ×10⁻⁶ cm/s.
